Test [1] relates to monkeys. In words: Intraocular pressure-lowering effect in monkeys compared to placebo. Type of test: in vivo. To be noted: monkeys treated with composition containing the compound.
The subject of test [2] is Normotensive male Dutch-Belted rabbits. The test is described as follows: IOP lowering in normotensive rabbits after a topical eye drop. The test is classed as in vivo. To be noted: rabbit, single 50 μl topical drop yielding 0.15% or 0.3% of active metabolite, 1% polysorbate 80 pH 5.5; IOP measured 0-8 hours; FIG. 1. The protocol: The experimental animals used, were Normotensive male Dutch-Belted rabbits (Myrtle's Rabbitry) over 6 months in age (n=4/compound/dose screened). A single drop (50 μl) of the drug formulation, which yields 0.15% or 0.3% of the active metabolite when completely hydrolyzed in 1% polysorbate 80 at pH 5.5, was administered topically by pipette onto the right eye (treated eye) at approximately 0700 hours. IOP of the rabbits (treated and untreated eyes) was measured 0 hours before and at 0.5, 1, 2, 3, 4, 6 and 8 hours after topical eyedrop administration. IOP at the time of eye drop administration (0 hours) was used as a baseline value. Prior to the tonometric measurements, 0.05% proparacaine (50 μl) was administered to each eye. Tonometric IOP measurements were obtained with a Mentor Pneumontonmeter. Additionally, all studies were masked. At least 1 week of wash-out time was allowed for each rabbit between dosings. All animals were examined for sedation, ocular irritation, and changes in pupil diameter throughout the course of the experiments.

As for `Cc1c(COC(=O)C(C)C)cccc1[C@H](C)c1c[nH]cn1` [Compound 1, iso-Butyric acid 3-[(S)-1-(1H-imidazol-4-yl)-ethyl]-2-methyl-benzyl ester], the “time for which the decrease in intraocular pressure is maintained” value in test [1] is listed as “up to 24 hours”. For the same molecule, in test [2], the “IOP lowering capacity (efficacy) compared to Alphagan P” value is “equal or comparable efficacy to Alphagan P®” and the “intraocular pressure duration compared to Alphagan P” value is listed as “longer intraocular pressure duration than Alphagan P®”.
